The source made the active and inactive calls.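 The calls were made as follows: active = compounds that disrupt early egg division and make hatched embryos spin fast in place instead of swimming forward; inactive = the rest.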 Square brackets hold non-standard residues; d marks the D form. Peptide text beside a SMILES is read from it. * marks the point of attachment. ξ: configuration not given here. X1 = COC1=CC(=O)N(C(=O)C(O*)C(C)C)C1Cc1ccccc1; ξNMe2Val = CC(C)C(C(=O)*)N(C)C; NMeV = CN[CH](C(=O)O)C(C)C
system: not listed separately; test: sea urchin embryo cleavage alteration, tubulin destabilizer project, whole organism, microscopy (AID 351); details: sea urchin embryo, cleavage alteration, microscopy

| Compound | outcome |
| --- | --- |
| COC(=O)c1ccccc1NC(=O)Cn1nnc(-c2ccc(OC)cc2)n1 | inactive; up to 5 mM |
| COc1cc(C(=O)NCCc2c(C)[nH]c3ccc(OC(F)(F)F)cc23)cc(OC)c1OC | inactive; up to 50 µM |
| O=C(Nc1ccc(Cl)cc1)C(=O)c1cn(Cc2ccc(Cl)cc2)c2ccccc12 | inactive; up to 5 mM |
| COc1ccc(-c2nc(Nc3nc(C)cc(C)n3)n[nH]2)cc1OC | inactive; up to 10 µM |
| c1cc(-c2nc(-c3ccc4c(c3)OCO4)no2)ccn1 | inactive; up to 50 µM |
| O=c1c(O)c(-c2ccc(O)c(O)c2)oc2cc(O)cc(O)c12 | inactive; up to 100 µM |
| COc1ccc(-c2nn[nH]n2)cc1OC | inactive; up to 100 µM |
| COc1ccc(C2=NOC3C4COC(O4)C(=O)C23)cc1 (configuration not stated) | inactive; up to 5 mM |
| COc1ccc(CNc2ccccc2-c2nn[nH]n2)cc1OC | inactive; up to 20 mM |
| COc1cc(-c2nc(-c3ccncc3)no2)cc(OC)c1OC | inactive; up to 10 µM |
| NC(=O)C(=O)c1cn(Cc2ccc(Cl)cc2Cl)c2ccccc12 | inactive; up to 10 µM |
| COc1ccc2[nH]cc(CCN3C(=O)OC(C)(C)C3(C)O)c2c1 (configuration not stated) | inactive; up to 10 µM |
| Brc1ccc(-c2n[nH]c(-c3[nH]ncc3NCc3ccncc3)n2)cc1 | inactive; up to 20 mM |
| O=C(Nc1ccc(F)cc1)C(=O)c1cn(Cc2ccc(Cl)cc2)c2ccccc12 | inactive; up to 5 mM |
| Nc1[nH]ncc1-c1nnc(Nc2ccc3c(c2)OCO3)o1 | inactive; up to 20 mM |
| Nc1nonc1-c1cccnc1 | inactive; up to 100 mM |
| c1cncc(CNc2cn[nH]c2-c2nnc(Nc3ccc4c(c3)OCO4)o2)c1 | inactive; up to 10 µM |
| Nc1csnc1-c1nnc(Nc2ccc3c(c2)OCO3)o1 | inactive; up to 5 µM |
| Cc1onc(-c2ccccc2Cl)c1C(=O)Nc1cccnc1 | inactive; up to 50 µM |
| COc1ccc(Cc2nn[nH]n2)cc1OC | inactive; up to 50 µM |
| Cc1ccc(Nc2nc(-c3c(C)nc4ccccn34)cs2)c(C)c1 | inactive; up to 5 mM |
| COc1cc(OC)c2c(c1)OC(c1ccc(OC)c(OC)c1)C(O)C2=O (configuration not stated) | inactive; up to 10 µM |
| O=C(Nc1cccc(F)c1)C(=O)c1cn(Cc2ccc(Cl)cc2)c2ccccc12 | inactive; up to 5 mM |
| COc1ccc(-c2oc(=O)oc2-c2ccc(OC)c(OC)c2)cc1OC | inactive; up to 5 mM |
| COc1cccc(NC(=O)C(=O)c2c[nH]c3ccccc23)c1 | inactive; up to 5 mM |
| NC(=O)C(=O)c1cn(Cc2ccc(F)cc2)c2ccccc12 | inactive; up to 50 µM |

| Compound | outcome |
| --- | --- |
| COc1cc2ccnc(-c3c[nH]c4cc(OC)c(OC)cc34)c2cc1OC | inactive; up to 10 µM |
| CCOc1cc2c(cc1OCC)C(c1cc(OC)c(OC)c(OC)c1)NCC2 (configuration not stated) | inactive; up to 50 µM |
| COc1ccc2[nH]cc(CCN)c2c1 | inactive; up to 50 µM |
| CCOc1ccc(C2=C3c4cc(OCC)c(OCC)cc4CCN3C(=O)C2=O)cc1OCC | inactive; up to 50 µM |
| O=C(Nc1ccc(OC(F)(F)F)cc1)C(=O)c1cn(Cc2ccc(Cl)cc2)c2ccccc12 | inactive; up to 1 µM |
| COc1ccc2[nH]c(C)c(CCNC(=O)c3ccc(OC)c(OC)c3)c2c1 | inactive; up to 50 µM |
| CCOc1cc2c(cc1OCC)C(c1cc(OC)c(O)c(OC)c1)NCC2 (configuration not stated) | inactive; up to 50 µM |
| CS(=O)(=O)c1ccc(Nc2nnc(-c3ccccc3N)o2)cc1 | inactive; up to 5 mM |
| Cn1cnc(NCc2cccnc2)c1-c1nnc(Nc2ccc3c(c2)OCCO3)o1 | inactive; up to 2.5 µM |
| Nc1nc2ccccc2cc1-c1nnc(Nc2ccc3c(c2)OCO3)o1 | inactive; up to 2 mM |
| Nc1nonc1-c1nc2ccccc2n1Cc1cccc(F)c1 | inactive; up to 1 mM |
| O=C(Nc1cccc(C(F)(F)F)c1)C(=O)c1cn(Cc2ccc(Cl)cc2)c2ccccc12 | inactive; up to 5 mM |
| COc1ccc(C(=O)c2c(N)nc3n2CCC3)cc1OC | inactive; up to 5 mM |
| Cc1nc2ccccn2c1-c1csc(Nc2ccc(Br)cc2Br)n1 | inactive; up to 5 mM |
| Cc1[nH]c2ccc(OC(F)(F)F)cc2c1CCNC(=O)Cc1ccc(Cl)cc1 | inactive; up to 10 µM |
| CCOc1ccc(-c2cn[nH]c2N)cc1OCC | inactive; up to 40 mM |
| Brc1cccc(-c2n[nH]c(-c3[nH]ncc3NCc3ccc4c(c3)OCO4)n2)c1 | inactive; up to 5 mM |
| O=C1c2c(O)cc(O)cc2OC(c2ccc(O)c(O)c2)C1O (configuration not stated) | inactive; up to 50 µM |
| COc1cc(N)c(C(O)c2nccc3cc(OC)c(OC)cc23)cc1OC (configuration not stated) | inactive; up to 50 µM |
| COC(=O)c1cc(=O)c(O)c2c(O)c(O)c(OC)cc2c1 | inactive; up to 20 mM |
| Clc1ccc(-c2[nH]c(-c3cccc(C#Cc4ccccc4)c3)nc2-c2ccccc2)cc1 | inactive; up to 5 mM |
| O=C(Nc1cccnc1Cl)C(=O)c1cn(Cc2ccc(Cl)cc2)c2ccccc12 | inactive; up to 2.5 mM |
| O=C(Nc1cccc(C(F)(F)F)c1)c1nscc1NCc1ccc2c(c1)OCO2 | inactive; up to 5 µM |
| O=C(Nc1cccc(C(F)(F)F)c1)c1nscc1NCc1ccncc1 | inactive; up to 1 µM |
| COc1ccc(Nc2nc(-c3ccc(OC)c(OC)c3)cs2)cc1 | inactive; up to 50 µM |
| Nc1csnc1C(=O)Nc1cccc(C(F)(F)F)c1 | inactive; up to 5 µM |

| Compound | outcome |
| --- | --- |
| COc1ccc(-c2csc(Nc3ccccc3OC)n2)cc1Br | inactive; up to 5 mM |
| COc1ccc2[nH]cc(CCNC(C)=O)c2c1 | inactive; up to 50 µM |
| c1cnc(-c2nc(-c3ccc4c(c3)OCO4)no2)cn1 | inactive; up to 5 µM |
| CCOc1cc(CNc2cccc3[nH]c(C)nc23)ccc1OC | inactive; up to 50 µM |
| COc1ccc(Cc2nc(-c3nonc3N)no2)cc1OC | inactive; up to 100 mM |
| COc1cc(-c2nnc(Nc3ccc4c(c3)OCO4)o2)cc(OC)c1OC | inactive; up to 5 µM |
| CC(=O)OC1C(=O)C2C(O)CC3OCC3(OC(C)=O)C2C(OC(=O)c2ccccc2)C2(O)CC(OC(=O)C(O)C(NCc3ccccc3)c3ccccc3)C(C)=C1C2(C)C (configuration not stated) | inactive; up to 50 µM |
| Nc1cn[nH]c1-c1nc(-c2ccc(C(F)(F)F)cc2)n[nH]1 | inactive; up to 50 mM |
| NC(=O)CCNCc1cccnc1 | inactive; up to 10 µM |
| COc1ccc(-c2nc(C)n3ccc4cc(OC)c(OC)cc4c23)cc1OC | inactive; up to 10 µM |
| Cc1[nH]c2ccc(OC(F)(F)F)cc2c1CCN1C(=O)C2CCCCC2C1=O (configuration not stated) | inactive; up to 10 µM |
| NC(=O)c1nscc1NCc1cccnc1 | inactive; up to 50 µM |
| Nc1cc2c(cc1C(=O)c1ccccc1)OCCO2 | inactive; up to 5 mM |
| COc1ccc2[nH]c(C)c(CCN3C(=O)C4CCCCC4C3=O)c2c1 (configuration not stated) | inactive; up to 50 µM |
| O=C(Nc1cccc(Cl)c1)C(=O)c1cn(Cc2ccc(Cl)cc2)c2ccccc12 | inactive; up to 5 mM |
| O=C(Nc1ccc(C(F)(F)F)cc1)C(=O)c1cn(Cc2ccc(Cl)cc2)c2ccccc12 | inactive; up to 0.5 µM |
| O=C(CC1(O)C(=O)N(Cc2ccc(F)cc2)c2ccccc21)c1ccc2c(c1)OCO2 (configuration not stated) | inactive; up to 2.5 µM |
| c1cncc(CNc2cn[nH]c2-c2nnc(Nc3ccc4c(c3)OCCO4)o2)c1 | inactive; up to 10 µM |
| COc1ccc2[nH]cc(CCNC(=O)C(F)(F)F)c2c1 | inactive; up to 50 µM |
| COc1ccc2[nH]c(C(=O)O)c(CCNC(C)=O)c2c1 | inactive; up to 50 µM |
| CC(=O)Nc1ccccc1-c1cc(C)c2ccccc2n1 | inactive; up to 50 µM |
| COc1ccc(/C=C(/C(=O)O)c2cc(OC)c(OC)c(OC)c2)cc1O | inactive; up to 10 mM |
| O=C(Nc1ccc(Br)cc1)C(=O)c1cn(Cc2ccc(Cl)cc2)c2ccccc12 | inactive; up to 5 mM |
| CCN(CC)C(=O)C(=O)c1cn(Cc2ccc(F)cc2)c2ccccc12 | inactive; up to 50 µM |
| O=C(C(=O)c1ccc2c(c1)OCO2)c1ccc2c(c1)OCO2 | inactive; up to 2 mM |
| NC(=O)c1nscc1NCc1ccncc1 | inactive; up to 5 µM |

system: sea urchin embryo, cleavage alteration, microscopy; test: as above; details: not given

| Compound | threshold concentration |
| --- | --- |
| COc1ccc(NC(=O)C(=O)c2cn(Cc3ccc(Cl)cc3)c3ccccc23)cc1 | 50 nM |
| COc1cccc(NC(=O)C(=O)c2cn(Cc3ccc(Cl)cc3)c3ccccc23)c1 | 4000 nM |
| COc1cc(N)c(-c2nnc(Nc3ccc4c(c3)OCO4)o2)c(OC)c1 | 50 nM |
| Nc1c(C(=O)c2ccccc2)sc2nc3c(cc12)CCCC3 | 20 nM |
| c1ccc(-c2nnc(Nc3ccc4c(c3)OCCO4)o2)c(NCc2ccncc2)c1 | 0.5 nM |
| c1cncc(CNc2ccccc2-c2nnc(Nc3ccc4c(c3)OCCO4)o2)c1 | 1 nM |
| Nc1cn[nH]c1-c1nc(-c2cccc(F)c2)n[nH]1 | 500 nM |
| COc1ccc(C2=N[C@H](c3ccc(OC)cc3)[C@H](c3ccc(OC)cc3)N2)cc1 | 500 nM |
| O=C(Nc1ccc2c(c1)OCCO2)C(=O)c1c[nH]c2ccccc12 | 2 nM |
| CCOc1ccc(Nc2nc(-c3c(C)nc4ncccn34)cs2)cc1 | 5 nM |
| COC(=O)Nc1nc2ccc(C(=O)c3cccs3)cc2[nH]1 | 5 nM |
| Nc1cc2c(cc1-c1nnc(Nc3ccc4c(c3)OCO4)o1)OCO2 | 50 nM |
| Cc1nc2ncccn2c1-c1csc(Nc2ccc(Cl)cc2)n1 | 100 nM |
| CCOc1ccc(Nc2nc(-c3c(C)nc4cc(C)ccn34)cs2)cc1 | 200 nM |
| COc1cc2c(cc1O)CCC1C2CCC2(C)C(O)CCC12 (configuration not stated) | 200 nM |
| COc1ccc(-c2nc3sc4c(c3c(=O)[nH]2)CCCC4)c2ccccc12 | 50 nM |
| CCOc1ccc(Nc2nc(-c3c(C)nc4sccn34)cs2)cc1 | 50 nM |
| Nc1ccccc1-c1nnc(Nc2ccc3c(c2)OCCO3)o1 | 1 nM |
| COC1=CC(=O)N(C(=O)C(OC(=O)C2CCCN2C(=O)C2CCCN2C(=O)C(C(C)C)N(C)C(=O)C(NC(=O)C(C(C)C)N(C)C)C(C)C)C(C)C)C1Cc1ccccc1 (configuration not stated) (ξNMe2Val-V[NMeV]PP-X1; configuration not given here) | 5 nM |

— PubChem BioAssay AID351 (ChemBlock, 2006)
